# Reference: ChEMBL document CHEMBL1140254, “A novel [99mTc[triple bond]N]2+ complex of metronidazole xanthate as a potential agent for targeting hypoxia” (Bioorg Med Chem Lett, 2005)
# Columns and labels:
# Mus musculus [1] = organism: Mus musculus; assay: Tumor/blood ratio of the label compound in mice 30 min after post injection; assay type: functional
# Mus musculus [2] = organism: Mus musculus; assay: Tumor/blood ratio of the label compound in mice 60 min after post injection; assay type: functional
# Mus musculus [3] = organism: Mus musculus; assay: Tumor/muscle ratio of the label compound in mice 30 min after post injection; assay type: functional, Muscle tissue
# Mus musculus [4] = organism: Mus musculus; assay: Tumor/muscle ratio of the label compound in mice 60 min after post injection; assay type: functional, Muscle tissue
# Mus musculus [5] = organism: Mus musculus; assay: Tumor/muscle ratio of the label compound in mice 180 min after post injection; assay type: functional, Muscle tissue
# [6] = Biodistribution of the labeled compound in mice kidney 60 min after post-injection; assay type: ADME, organism-based; details: mouse, in vivo, 1 h
# [7] = Biodistribution of the labeled compound in mice liver 180 min after post-injection; assay type: ADME, organism-based; details: mouse, in vivo, 3 h
# [8] = Biodistribution of the labeled compound in mice lungs 180 min after post-injection; assay type: ADME, organism-based, Lung; details: mouse, in vivo, 3 h
# [9] = Biodistribution of the labeled compound in mice spleen 30 min after post-injection; assay type: ADME, organism-based; details: mouse, in vivo, 0.5 h
# [10] = Biodistribution of the labeled compound in mice spleen 60 min after post-injection; assay type: ADME, organism-based; details: mouse, in vivo, 1 h
# [11] = Biodistribution of the labeled compound in mice int +GB 30 min after post-injection; assay type: ADME, organism-based; details: mouse, in vivo, 0.5 h
# [12] = Biodistribution of the labeled compound in mice int+GB 180 min after post-injection; assay type: ADME, organism-based; details: mouse, in vivo, 3 h
# [13] = Biodistribution of the labeled compound in mice kidney 180 min after post-injection; assay type: ADME, organism-based; details: mouse, in vivo, 3 h
# [14] = Biodistribution of the labeled compound in mice muscle 180 min after post-injection; assay type: ADME, organism-based, Muscle tissue; details: mouse, in vivo, 3 h
# [15] = Biodistribution of the labeled compound in mice spleen 180 min after post-injection; assay type: ADME, organism-based; details: mouse, in vivo, 3 h
# [16] = Biodistribution of the labeled compound in mice stomach 30 min after post-injection; assay type: ADME, organism-based; details: mouse, in vivo, 0.5 h
# [17] = Biodistribution of the labeled compound in mice stomach 60 min after post-injection; assay type: ADME, organism-based; details: mouse, in vivo, 1 h
# [18] = Biodistribution of the labeled compound in mice bone 30 min after post-injection; assay type: ADME, organism-based, Bone element; details: mouse, in vivo, 0.5 h
# [19] = Biodistribution of the labeled compound in mice bone 60 min after post-injection; assay type: ADME, organism-based, Bone element; details: mouse, in vivo, 1 h
# [20] = Biodistribution of the labeled compound in mice blood 30 min after post-injection; assay type: ADME, organism-based; details: mouse, in vivo, 0.5 h
# [21] = Biodistribution of the labeled compound in mice blood 60 min after post-injection; assay type: ADME, organism-based; details: mouse, in vivo, 1 h
# [22] = Biodistribution of the labeled compound in mice bone 180 min after post-injection; assay type: ADME, organism-based, Bone element; details: mouse, in vivo, 3 h
# [23] = Biodistribution of the labeled compound in mice heart 30 min after post-injection; assay type: ADME, organism-based; details: mouse, in vivo, 0.5 h
# [24] = Biodistribution of the labeled compound in mice heart 60 min after post-injection; assay type: ADME, organism-based; details: mouse, in vivo, 1 h
# [25] = Biodistribution of the labeled compound in mice liver 60 min after post-injection; assay type: ADME, organism-based; details: mouse, in vivo, 1 h
# [26] = Biodistribution of the labeled compound in mice lungs 30 min after post-injection; assay type: ADME, organism-based, Lung; details: mouse, in vivo, 0.5 h
# [27] = Biodistribution of the labeled compound in mice lungs 60 min after post-injection; assay type: ADME, organism-based, Lung; details: mouse, in vivo, 1 h
# [28] = Biodistribution of the labeled compound in mice Muscle 30 min after post-injection; assay type: ADME, organism-based, Muscle tissue; details: mouse, in vivo, 0.5 h
# [29] = Biodistribution of the labeled compound in mice blood 180 min after post-injection; assay type: ADME, organism-based; details: mouse, in vivo, 3 h
# [30] = Biodistribution of the labeled compound in mice heart 180 min after post-injection; assay type: ADME, organism-based; details: mouse, in vivo, 3 h
# [31] = Biodistribution of the labeled compound in mice int+GB 60 min after post-injection; assay type: ADME, organism-based; details: mouse, in vivo, 1 h
# [32] = Biodistribution of the labeled compound in mice kidney 30 min after post-injection; assay type: ADME, organism-based; details: mouse, in vivo, 0.5 h
# [33] = Biodistribution of the labeled compound in mice stomach 180 min after post-injection; assay type: ADME, organism-based; details: mouse, in vivo, 3 h
# [34] = Biodistribution of the labeled compound in mice tumor 60 min after post-injection at adose 1.44 g; assay type: ADME, organism-based; details: mouse, in vivo, 1 h
# [35] = Biodistribution of the labeled compound in mice tumor 180 min after post-injection at adose 1.36 g; assay type: ADME, organism-based; details: mouse, in vivo, 3 h
# [36] = Biodistribution of the labeled compound in mice tumor 30 min after post-injection at a dose of 1.42 g; assay type: ADME, organism-based; details: mouse, in vivo, 0.5 h
# [37] = Biodistribution of the labeled compound in mice muscle 60 min after post-injection; assay type: ADME, organism-based, Muscle tissue; details: mouse, in vivo, 1 h
# Mus musculus [38] = organism: Mus musculus; assay: Tumor/blood ratio of the label compound in mice 180 min after post injection; assay type: functional
# [39] = Biodistribution of the labeled compound in mice liver 30 min after post-injection; assay type: ADME, organism-based; details: mouse, in vivo, 0.5 h
smiles,measurement,setting,value
Cc1ncc([N+](=O)[O-])n1CCOC(=S)[S-].[Na+] [METRONIDAZOLE XANTHATE],Ratio,Mus musculus [1],0.2
same,Ratio,Mus musculus [2],0.36
same,Ratio,Mus musculus [3],1.19
same,Ratio,Mus musculus [4],2.15
same,Ratio,Mus musculus [5],3.35
same,Biodistribution,[6],3.18
same,Biodistribution,[7],18.37
same,Biodistribution,[8],0.75
same,Biodistribution,[9],0.25
same,Biodistribution,[10],0.34
same,Biodistribution,[11],12.46
same,Biodistribution,[12],32.52
same,Biodistribution,[13],2.87
same,Biodistribution,[14],4.2
same,Biodistribution,[15],0.27
same,Biodistribution,[16],1.68
same,Biodistribution,[17],0.74
same,Biodistribution,[18],2.59
same,Biodistribution,[19],2.43
same,Biodistribution,[20],11.45
same,Biodistribution,[21],6.75
same,Biodistribution,[22],2.27
same,Biodistribution,[23],0.38
same,Biodistribution,[24],0.27
same,Biodistribution,[25],23.53
same,Biodistribution,[26],1.59
same,Biodistribution,[27],1.09
same,Biodistribution,[28],11.19
same,Biodistribution,[29],3.95
same,Biodistribution,[30],0.27
same,Biodistribution,[31],20.19
same,Biodistribution,[32],4.25
same,Biodistribution,[33],0.71
same,Biodistribution,[34],0.43
same,Biodistribution,[35],0.41
same,Biodistribution,[36],0.4
same,Biodistribution,[37],6.43
same,Ratio,Mus musculus [38],0.62
same,Biodistribution,[39],29.32
